Consider 31 molecules from patent publication EP4613329A1, “COMPOUND FOR INHIBITING BRD PROTEIN” (Benobio Co., Ltd., priority 2024, dated 2025).

pIC50: −log10 of the molar value.

The test system of data set [1] is retinal degeneration mouse model. Briefly: Electroretinogram (ERG) in blue LED-induced retinal degeneration mouse model. The data set is classed as in vivo, albino BALB/c mice. The conditions noted are these: compound 24 nM, Com. Ex. 4 25 mg/kg. How it is done: In order to fabricate a retinal degeneration model, 7-week-old male albino BALB/c mice were used. Three mice were randomly assigned to each test group, and light and dark were maintained at 12-hour intervals. Each mouse was dark-adapted for 24 hours and then the pupils were dilated with 0.5% tropicamide and 0.5% phenylephrine hydrochloride eye drops (Santen, Osaka, Japan) 30 minutes before blue LED exposure. Unanesthetized mice were exposed to 2,000 lux of a blue LED (460 ± 10 nm) for 2 hours in a cage with reflective interiors. The light intensity was measured using an LED photometer (model TM-201L, TENMARS Electronics, Taipei, Taiwan). After exposure to blue LED, the mice were kept in the dark for 24 hours and then resumed on a 12-hour light/dark cycle for 3 days.
In a test substance control test, mice with retinal degeneration were divided into a normal saline-administered group and a compound-administered group (24 nM) of the present disclosure, and 3 mice were randomly assigned to each test group. A positive control test was divided into a normal saline-administered group and an Eyela (25 mg/kg mouse body weight)-administered group (Comparative Example 4), and three mice were randomly assigned to each test group.
All test groups were administered as a single dose by intravitreal injection 1 hour after LED exposure.
That is, mice were stored in a completely dark room for 16 hours before ERG recordings. All animals were anesthetized intraperitoneally with zolazepam (20 mg/kg) and xylazine (7.5 mg/kg). The cornea was coated with hydroxypropyl methylcellulose gel and covered with a gold ring contact electrode. Ground and reference electrodes were disposed subcutaneously on the tail and ears, respectively. Stimuli were short white flashes delivered through a Ganzfeld stimulator (UTAS-3000; LKC Technologies, Gaithersburg, MD, USA). The signal was amplified and filtered through a digital band-pass filter in the range of 5 to 300 Hz to generate a and b waves. Scotopic ERG, and rod-mediated responses were obtained at increasing light intensities of 0.025 and 3.96 cd/s • m^2. Photopic, cone-mediated responses were obtained after 5-min light adaptation to background light intensity. The recordings were obtained at the light intensity of 6.28 cd/s • m^2. Each recording was the average of three responses obtained within a 15-second stimulation interval. A-wave amplitude was measured from a baseline to the maximum a-wave peak, and b-wave amplitude was measured from the maximum a-wave peak to the maximum b-wave peak.

The target of a further data set is T1, BRD3 (BD1) (Homo sapiens, UniProt Q15059).
T1 construct: a bromodomain of BRD2 (BD1) and BRD3 (BD1), one of the BRD protein family; GST
Briefly: Binding inhibitory effect on BRD3 protein (same manner as Experimental Example 1-1).

A further data set has as its target T2, BRD2 (BD1) (Homo sapiens, UniProt P25440).
T2 construct: a bromodomain of BRD2 (BD1) and BRD3 (BD1), one of the BRD protein family
Briefly: Binding inhibitory effect on BRD2 protein (AlphaScreen, GST-BRD2 (BD1) / biotinylated acetyl-histone H4 peptide). The conditions noted are these: 100 nM GST-BRD2 (BD1), 100 nM biotinylated acetyl-histone H4 (Lys5, 8, 12, 16) peptide.

[2] abbreviates: single intravitreal injection 1 hour after LED exposure.

T1 sequence (Q15059 34-140 limits assumed, species assumed): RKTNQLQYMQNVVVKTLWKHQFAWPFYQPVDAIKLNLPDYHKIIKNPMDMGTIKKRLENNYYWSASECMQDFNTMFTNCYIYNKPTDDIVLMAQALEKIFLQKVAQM
T2 sequence (P25440 74-180 limits assumed, species assumed): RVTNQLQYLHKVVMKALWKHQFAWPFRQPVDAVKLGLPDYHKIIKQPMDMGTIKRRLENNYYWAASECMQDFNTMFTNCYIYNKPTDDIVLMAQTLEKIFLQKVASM

In the case of `CNC(=O)C1(C)CN(Cc2ccc(-c3ccccc3-c3cccc4c3CN(C)C4=O)o2)CCC1O` (stereo not shown) [Compound 25], the “Wavelength enhanced multiple compared to normal saline-treated group, Average value” in data set [1] (average of a-wave and b-wave, intravitreal) was 1.27. In data set [1] (setting [2]), the “Wavelength enhanced multiple compared to normal saline-treated group, a-wave” value is given as 1.52 and the “Wavelength enhanced multiple compared to normal saline-treated group, b-wave” value was 1.01. Besides, the pIC50 on BRD3 (BD1) was 5.89. This molecule gave a pIC50 at BRD2 (BD1) of 5.11.

For `CN1Cc2c(cccc2-c2ccccc2-c2ccc(CN3CCC(Cc4ccc(F)cc4)(C(=O)NCc4ccccc4)CC3)o2)C1=O` [Compound 20], the figures for the pIC50 at BRD3 (BD1) and on BRD2 (BD1) were 5.43 and 4.78, respectively.

For the molecule `C#CCN(C)Cc1ccc(-c2ccccc2-c2cccc3c2CN(C)C3=O)o1` [Compound 6], the pIC50 at BRD3 (BD1) was 5.58; on BRD2 (BD1), 4.80.

`CN1Cc2c(cccc2-c2ccccc2-c2ccc(CN3CCN(S(C)(=O)=O)CC3)o2)C1=O` [Compound 11]: the negative logarithm of the IC50 (pIC50) was 5.43 on BRD3 (BD1) and 4.78 on BRD2 (BD1).

As to `CN1Cc2c(cccc2-c2ccccc2-c2ccc(CN3CCCCC3)o2)C1=O` [Compound 12, 2-methyl-4-(2-(5-(piperidine-1-ylmethyl)furan-2-yl)phenyl)isoindoline-1-one], the pIC50 is 5.52 on BRD3 (BD1) and 4.84 at BRD2 (BD1).

On to `CNC(=O)CC1C(=O)NCCN1Cc1ccc(-c2ccccc2-c2cccc3c2CN(C)C3=O)o1` (stereo not shown) [Compound 26], for which the pIC50 at BRD3 (BD1) is 5.86; at BRD2 (BD1), 4.89.

Turning to `CN(C)CCNCc1ccc(-c2ccccc2-c2cccc3c2CN(C)C3=O)o1` [Compound 5, 2-methyl-4-(2-(5-((dimethylaminoethylamino)methyl)furan-2-yl)phenyl)isoindoline-1-one], the values for the pIC50 at BRD3 (BD1) and at BRD2 (BD1) were 5.63 and 4.91, respectively.

As to `CN1Cc2c(cccc2-c2ccccc2-c2ccc(CN3CCC(Cc4ccccc4)(C(N)=O)CC3)o2)C1=O` [Compound 29, 2-methyl-4-(2-(5-(((4-benzyl-4'-carboxamidyl)piperidine)methyl)furan-2-yl)phenyl)isoindoline-1-one], the pIC50 on BRD3 (BD1) was 5.31; on BRD2 (BD1) it was 4.84.

In the case of `CN1Cc2c(cccc2-c2ccccc2-c2ccc(CN3CCN(c4cccc(F)c4)CC3)o2)C1=O` [Compound 14, 2-methyl-4-(2-(5-(((4-(3-fluorophenyl)piperazine-1-yl)methyl))furan-2-yl)phenyl)isoindoline-1-one], the negative-log IC50 (pIC50) at BRD3 (BD1) was 5.62; at BRD2 (BD1), 4.87.

As for `CN1Cc2c(cccc2-c2ccccc2-c2ccc(CNC3CCCC3)o2)C1=O` [Compound 7, 2-methyl-4-(2-(5-((cyclopentylamino)methyl)furan-2-yl)phenyl)isoindoline-1-one], the negative-log IC50 (pIC50) at BRD3 (BD1) is 5.36; on BRD2 (BD1), 4.74.

For `CCNCc1ccc(-c2ccccc2-c2cccc3c2CN(C)C3=O)o1` [Compound 2, 2-methyl-4-(2-(5-((ethylamino)methyl)furan-2-yl)phenyl)isoindoline-1-one], the pIC50 at BRD3 (BD1) is 5.90; on BRD2 (BD1), 4.78.

Consider `CN1Cc2c(cccc2-c2ccccc2-c2ccc(CN3CCC(N(C)C)CC3)o2)C1=O` [Compound 15, 2-methyl-4-(2-(5-((4-(dimethylamino)piperidine-1-yl)methyl)furan-2-yl)phenyl)isoindoline-1-one], for which the pIC50 on BRD3 (BD1) was 5.59; at BRD2 (BD1) it was 4.80.

With `CNCc1ccc(-c2ccccc2-c2cccc3c2CN(C)C3=O)o1` [Compound 1, 2-methyl-4-(2-(5-((methylamino)methyl)furan-2-yl)phenyl)isoindoline-1-one], the pIC50 is 5.86 on BRD3 (BD1) and 4.77 at BRD2 (BD1).

On to `CNC(=O)C1(Cc2ccc(F)cc2)CCN(C(=O)c2ccc(-c3ccccc3-c3cccc4c3CN(C)C4=O)o2)CC1` [Compound 32, 2-methyl-4-(2-(5-(((4-(4-fluorobenzyl)-4'-carboxamidyl)piperidine)carbonyl)furan-2-yl)phenyl)isoindoline-1-one], for which the pIC50 was 5.40 on BRD3 (BD1) and 4.77 at BRD2 (BD1).

For `CCCNCc1ccc(-c2ccccc2-c2cccc3c2CN(C)C3=O)o1` [Compound 3, 2-methyl-4-(2-(5-((propylamino)methyl)furan-2-yl)phenyl)isoindoline-1-one], the values for the pIC50 at BRD3 (BD1) and on BRD2 (BD1) were 5.35 and 4.85, respectively.

`CN1Cc2c(cccc2-c2ccccc2-c2ccc(CN3CCC4(CC3)C(=O)N(C)CC4c3ccc(F)cc3)o2)C1=O` (stereo not shown) [Compound 23, 2-methyl-4-(2-(5-(((4-(4-fluorophenyl)-2-methyl)-2λ^2,8-diazaspiro[4,5]decan-1-one)methyl)furan-2-yl)phenyl)isoindoline-1-one]: the values for the pIC50 on BRD3 (BD1) and at BRD2 (BD1) were 5.89 and 4.82, respectively.

`CN1Cc2c(cccc2-c2ccccc2-c2ccc(CNCCS(C)(=O)=O)o2)C1=O` [Compound 9]: the pIC50 at BRD3 (BD1) was 5.41; at BRD2 (BD1), 4.71.

For `CC(C)NCc1ccc(-c2ccccc2-c2cccc3c2CN(C)C3=O)o1` [Compound 8, 2-methyl-4-(2-(5-((isopropylamino)methyl)furan-2-yl)phenyl)isoindoline-1-one], the negative logarithm of the IC50 (pIC50) at BRD3 (BD1) was 5.66.

As for `CN1Cc2c(cccc2-c2ccccc2-c2ccc(CN3CCC4(CC3)C(=O)NCC4c3ccc(F)cc3)o2)C1=O` (stereo not shown) [Compound 22, 2-methyl-4-(2-(5-((4-(4-fluorophenyl)-2λ^2,8-diazaspiro[4,5]decan-1-one)methyl)furan-2-yl)phenyl)isoindoline-1-one], the values for the pIC50 on BRD3 (BD1) and on BRD2 (BD1) were 5.92 and 4.86, respectively.

On to `CNCc1oc(-c2ccccc2-c2cccc3c2CN(C)C3=O)cc1C` [Compound 38], for which the pIC50 at BRD3 (BD1) is 5.95; at BRD2 (BD1), 4.90.

Take `CCC1(C(=O)NC)CCCN(C(=O)c2ccc(-c3ccccc3-c3cccc4c3CN(C)C4=O)o2)C1` (stereo not shown) [Compound 36]: the results for the pIC50 on BRD3 (BD1) and at BRD2 (BD1) were 5.37 and 4.84, respectively.

Take `CNC(=O)C1(Cc2ccccc2)CCN(Cc2ccc(-c3ccccc3-c3cccc4c3CN(C)C4=O)o2)CC1` [Compound 19]: the pIC50 on BRD3 (BD1) is 5.85; at BRD2 (BD1), 4.86.

For `COCNCc1ccc(-c2ccccc2-c2cccc3c2CN(C)C3=O)o1` [Compound 4, 2-methyl-4-(2-(5-((methoxymethylamino)methyl)furan-2-yl)phenyl)isoindoline-1-one], the figures for the pIC50 on BRD3 (BD1) and at BRD2 (BD1) were 5.35 and 4.76, respectively.

Regarding `CN1Cc2c(cccc2-c2ccccc2-c2ccc(CN3CCN(C(C)(C)C(N)=O)CC3)o2)C1=O` [Compound 16], the results for the pIC50 at BRD3 (BD1) and on BRD2 (BD1) were 5.76 and 4.80, respectively.

Consider `CNC(=O)C1(C)CN(Cc2oc(-c3ccccc3-c3cccc4c3CN(C)C4=O)cc2C)CCC1O` (stereo not shown) [Compound 41], for which the negative-log IC50 (pIC50) was 5.67 at BRD3 (BD1) and 4.81 on BRD2 (BD1).

With `CN1Cc2c(cccc2-c2ccccc2-c2ccc(CNCc3ccccc3)o2)C1=O` [Compound 17, 2-methyl-4-(2-(5-((benzylamino)methyl)furan-2-yl)phenyl)isoindoline-1-one], the negative logarithm of the IC50 (pIC50) on BRD3 (BD1) was 5.44; at BRD2 (BD1), 4.85.

For `CN1Cc2c(cccc2-c2ccccc2-c2ccc(CN3CCC(Cc4ccncc4)(C(N)=O)CC3)o2)C1=O` [Compound 31, 2-methyl-4-(2-(5-(((4-pyridinylmethyl-4'-carboxamidyl)piperidine)methyl)furan-2-yl)phenyl)isoindoline-1-one], the pIC50 on BRD3 (BD1) was 5.56; on BRD2 (BD1) it was 4.82.

Turning to `CNC(=O)C1(C)CN(C(=O)c2ccc(-c3ccccc3-c3cccc4c3CN(C)C4=O)o2)CCC1O` (stereo not shown) [Compound 34], the results for the pIC50 on BRD3 (BD1) and on BRD2 (BD1) were 5.33 and 4.80, respectively.

Take `CNC(=O)c1ccc(-c2ccccc2-c2cccc3c2CN(C)C3=O)o1` [Compound 33, 2-methyl-4-(2-(5-((methylamino)carbonyl)furan-2-yl)phenyl)isoindoline-1-one]: the negative logarithm of the IC50 (pIC50) at BRD3 (BD1) is 5.62; at BRD2 (BD1), 4.95.

As to `CN1CCN(CCNCc2ccc(-c3ccccc3-c3cccc4c3CN(C)C4=O)o2)CC1` [Compound 10, 2-methyl-4-(2-(5-(((2-(4-methylpiperazine-1-yl)ethyl)amino)methyl)furan-2-yl)phenyl)isoindoline-1-one], the results for the negative-log IC50 (pIC50) at BRD3 (BD1) and on BRD2 (BD1) were 5.41 and 4.94, respectively.

`CCC1(C(=O)NC)CCCN(Cc2ccc(-c3ccccc3-c3cccc4c3CN(C)C4=O)o2)C1` (stereo not shown) [Compound 24]: the negative logarithm of the IC50 (pIC50) is 5.78 at BRD3 (BD1) and 4.82 on BRD2 (BD1).

What is called pIC50 is the negative decadic logarithm of the IC50, by convention in mol/L. Lower therefore signals a large IC50.
